According to patent publication US4100346A, “Certain 7(o-amino-methyl- or methylaminomethylphenyl- or cyclohexadienyl- or thienylacetamide)-3[1-carboxymethyl-(or ethyl- or propyl-)-tetrazol-5-ylthiomethyl]-3-cephem-4-carboxylic acids” (Bristol-Myers Company, priority 1976, dated 1978):
Values after ≈ are worked out from the molar mass of the structure shown. Like-named read-outs stand apart in the source and are kept apart here.

Key:
[1] = tested on: Clostridium sp.; assay: microbe, parasite or virus in culture; type: cell-based; conditions: read-out: Minimum inhibitory concentration
Description: Antibiotic spectrum. […] Procedures were as follows:
c. Obligate anaerobes. The assay was performed on solid medium, consisting of Brain Heart Infusion Broth (BBL) supplemented with 5% defibrinated sheep blood and 1% Ionagar (Colab).

[2] = tested on: Enterobacter aerogenes; assay: Minimum growth inhibitory and bactericidal concentrations for Enterobacteriaceae; type: cell-based; conditions: Klebsiella aerogenes, inoculum 10^4 cells; for MBC: read-out: MBC, minimum bactericidal concentration; for MIC: read-out: MIC, Minimum growth inhibitory concentration
Source text: (§1) Miscellaneous. Methods for determining bactericidal activity and susceptibility to cell-free β-lactamase were those previously used; Leitner et al., BL-S640, A Cephalosporin With a Broad Spectrum of Antibacterial Activity: Properties in vitro, Antimicrob. Agents Chemother. 7:298-305 (1975).
(§2) *MIC, Minimum growth inhibitory concentration; MBC, minimum bactericidal
(§3) concentration; expressed as micrograms per milliliter. The inoculum was […]

[3] = tested on: Enterobacter cloacae; assay: as above; type: cell-based; conditions: for MBC: read-out: MBC, minimum bactericidal concentration; for MIC: read-out: MIC, Minimum growth inhibitory concentration
Source text: as §1, §2, §3

[4] = tested on: Escherichia coli; assay: as above; type: cell-based; conditions: for MBC: read-out: MBC, minimum bactericidal concentration; for MIC: read-out: MIC, Minimum growth inhibitory concentration
Source text: as §1, §2, §3

[5] = tested on: Klebsiella pneumoniae; assay: as above; type: cell-based; conditions: for MBC: read-out: MBC, minimum bactericidal concentration; for MIC: read-out: MIC, Minimum growth inhibitory concentration
Source text: as §1, §2, §3

[6] = tested on: Proteus mirabilis; assay: as above; type: cell-based; conditions: for MBC: read-out: MBC, minimum bactericidal concentration; for MIC: read-out: MIC, Minimum growth inhibitory concentration
Source text: as §1, §2, §3

[7] = tested on: Proteus rettgeri; assay: as above; type: cell-based; conditions: Providencia rettgeri, inoculum 10^4 cells; for MBC: read-out: MBC, minimum bactericidal concentration; for MIC: read-out: MIC, Minimum growth inhibitory concentration
Source text: as §1, §2, §3

[8] = tested on: Proteus vulgaris; assay: as above; type: cell-based; conditions: Proteus vulgaris, inoculum 10^4 cells; for MBC: read-out: MBC, minimum bactericidal concentration; for MIC: read-out: MIC, Minimum growth inhibitory concentration
Source text: as §1, §2, §3

[9] = target: staphylococcal β-lactamase, Staphylococcus aureus A9606 (Staphylococcus aureus, UniProt P00807); assay: Hydrolysis by β-lactamase in cell-free extracts; type: biochemical; conditions: cell-free extract
Chain of staphylococcal β-lactamase, Staphylococcus aureus A9606 (P00807 25-281): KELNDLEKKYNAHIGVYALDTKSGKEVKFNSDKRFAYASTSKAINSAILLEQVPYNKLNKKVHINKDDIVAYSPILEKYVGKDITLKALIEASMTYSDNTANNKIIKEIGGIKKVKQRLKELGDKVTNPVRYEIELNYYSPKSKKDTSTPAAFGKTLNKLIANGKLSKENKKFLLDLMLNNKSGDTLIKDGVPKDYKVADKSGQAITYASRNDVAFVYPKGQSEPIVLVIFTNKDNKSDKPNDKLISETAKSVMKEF
Description: as §1
Susceptibility to β-lactamase. Susceptibility to enzymic hydrolysis was assessed by determining relative rates of hydrolysis by cell-free preparations of various β-lactamases (Table 6). BL-S786 was slightly to markedly less susceptible than the other cephalosporins to hydrolysis by β-lactamases of Type Ia, Ib, IIIa and IVa. All cephalosporins were poor substrates for Type IIa and staphylococcal β-lactamases. The four cephalosporins were hydrolyzed at similar rates by the Type IVb enzyme.

[10] = tested on: Enterobacter cloacae; assay: Intramuscular treatment of systemically infected mice; type: in vivo; conditions: Enterobacter cloacae, im, 3.5 h, read-out: PD50 /treatment
Source text: Treatment of Systemically Infected Mice. The procedures were identical with those published previously [Leitner et al., BL-S640, a Cephalosporin With a Broad Spectrum of Antibacterial Activity: Bioavailability and Therapeutic Properties in Rodents, Antimicrob. Agents Chemother.
(a) the hog gastric mucin used in infections with Staphylococcus aureus No. 2 was purchased from American Laboratories, Inc., Omaha, Neb.

[11] = tested on: Arizona hinshawii; assay: Growth inhibitory activity, antibiotic dilution technique; conditions: Salmonella enterica, read-out: Minimum inhibitory concentration
[12] = tested on: Serratia marcescens; assay: as above; conditions: read-out: Minimum inhibitory concentration
[13] = tested on: Pseudomonas aeruginosa; assay: as above; conditions: read-out: Minimum inhibitory concentration
[14] = tested on: Alcaligenes sp.; assay: as above
[15] = tested on: Providencia stuartii; assay: as above
[16] = tested on: Proteus rettgeri; assay: as above
[17] = tested on: Haemophilus influenzae; assay: as above; conditions: including 9 ampicillin-resistant strains
[18] = tested on: Proteus vulgaris; assay: Effect of inoculum size on susceptibility of Enterobacteriaceae
[19] = Enterobacter aerogenes strain 1
[20] = Enterobacter aerogenes strain 2
[21] = Enterobacter aerogenes strain 3
[22] = Enterobacter cloacae strain 3, inoculum 10^4 cells
[23] = Enterobacter cloacae strain 4, inoculum 10^4 cells
[24] = Enterobacter cloacae strain 8, inoculum 10^4 cells
[25] = Escherichia coli strain 1, inoculum 10^4 cells
[26] = Escherichia coli strain 2, inoculum 10^4 cells
[27] = Escherichia coli strain 3, inoculum 10^4 cells
[28] = Escherichia coli strain 4, inoculum 10^4 cells
[29] = Escherichia coli strain 5, inoculum 10^4 cells
[30] = Escherichia coli strain 6, inoculum 10^4 cells
[31] = Klebsiella pneumoniae strain 1, inoculum 10^4 cells
[32] = Klebsiella pneumoniae strain 2, inoculum 10^4 cells
[33] = Klebsiella pneumoniae strain 3, inoculum 10^4 cells
[34] = Klebsiella pneumoniae strain 4, inoculum 10^4 cells
[35] = Klebsiella pneumoniae strain 5, inoculum 10^4 cells
[36] = Klebsiella pneumoniae strain 6, inoculum 10^4 cells
[37] = Proteus mirabilis strain 1, inoculum 10^4 cells
[38] = Proteus mirabilis strain 2, inoculum 10^4 cells
[39] = Proteus mirabilis strain 3, inoculum 10^4 cells
[40] = Proteus mirabilis strain 4, inoculum 10^4 cells
[41] = Proteus mirabilis strain 5, inoculum 10^4 cells

CC(=O)OCC1=C(C(=O)O)N2C(=O)[C@@H](NC(=O)Cc3cccs3)[C@H]2SC1 [Cephalothin]
MIC [1]: 0.5 mg/L (≈ 1.26 µM) | MBC [2, 19]: 250 mg/L (≈ 631 µM) | MIC [2, 19]: 125 mg/L (≈ 315 µM) | MBC [2, 20]: > 250 mg/L | MIC [2, 20]: 125 mg/L (≈ 315 µM) | MBC [2, 21]: > 250 mg/L | MIC [2, 21]: 250 mg/L (≈ 631 µM) | MBC [3, 22]: 63 mg/L (≈ 159 µM) | MIC [3, 22]: 32 mg/L (≈ 80.7 µM) | MBC [3, 23]: > 250 mg/L | MIC [3, 23]: 250 mg/L (≈ 631 µM) | MBC [3, 24]: > 250 mg/L | MIC [3, 24]: > 250 mg/L | MBC [4, 25]: 16 mg/L (≈ 40.4 µM) | MIC [4, 25]: 8 mg/L (≈ 20.2 µM) | MBC [4, 26]: 32 mg/L (≈ 80.7 µM) | MIC [4, 26]: 32 mg/L (≈ 80.7 µM) | MBC [4, 27]: 8 mg/L (≈ 20.2 µM) | MIC [4, 27]: 4 mg/L (≈ 10.1 µM) | MBC [4, 28]: 16 mg/L (≈ 40.4 µM) | MIC [4, 28]: 8 mg/L (≈ 20.2 µM) | MBC [4, 29]: 16 mg/L (≈ 40.4 µM) | MIC [4, 29]: 16 mg/L (≈ 40.4 µM) | MBC [4, 30]: 16 mg/L (≈ 40.4 µM) | MIC [4, 30]: 16 mg/L (≈ 40.4 µM) | MBC [5, 31]: 2 mg/L (≈ 5.04 µM) | MIC [5, 31]: 2 mg/L (≈ 5.04 µM) | MBC [5, 32]: 8 mg/L (≈ 20.2 µM) | MIC [5, 32]: 4 mg/L (≈ 10.1 µM) | MBC [5, 33]: 4 mg/L (≈ 10.1 µM) | MIC [5, 33]: 2 mg/L (≈ 5.04 µM) | MBC [5, 34]: 4 mg/L (≈ 10.1 µM) | MIC [5, 34]: 4 mg/L (≈ 10.1 µM) | MBC [5, 35]: 8 mg/L (≈ 20.2 µM) | MIC [5, 35]: 8 mg/L (≈ 20.2 µM) | MBC [5, 36]: 2 mg/L (≈ 5.04 µM) | MIC [5, 36]: 2 mg/L (≈ 5.04 µM) | MBC [6, 37]: 32 mg/L (≈ 80.7 µM) | MIC [6, 37]: 8 mg/L (≈ 20.2 µM) | MBC [6, 38]: 32 mg/L (≈ 80.7 µM) | MIC [6, 38]: 8 mg/L (≈ 20.2 µM) | MBC [6, 39]: 8 mg/L (≈ 20.2 µM) | MIC [6, 39]: 8 mg/L (≈ 20.2 µM) | MBC [6, 40]: 8 mg/L (≈ 20.2 µM) | MIC [6, 40]: 4 mg/L (≈ 10.1 µM) | MBC [6, 41]: 16 mg/L (≈ 40.4 µM) | MIC [6, 41]: 8 mg/L (≈ 20.2 µM) | MBC ([7]; Proteus rettgeri strain 2): 2 mg/L (≈ 5.04 µM) | MIC ([7]; Proteus rettgeri strain 2): 1 mg/L (≈ 2.52 µM) | MBC ([7]; Proteus rettgeri strain 3): 250 mg/L (≈ 631 µM) | MIC ([7]; Proteus rettgeri strain 3): 125 mg/L (≈ 315 µM) | MBC ([8]; Proteus vulgaris strain 1): 2 mg/L (≈ 5.04 µM) | MIC ([8]; Proteus vulgaris strain 1): 1 mg/L (≈ 2.52 µM) | MBC ([8]; Proteus vulgaris strain 2): 16 mg/L (≈ 40.4 µM) | MIC ([8]; Proteus vulgaris strain 2): 8 mg/L (≈ 20.2 µM) | MBC ([8]; Proteus vulgaris strain 4): 16 mg/L (≈ 40.4 µM) | MIC ([8]; Proteus vulgaris strain 4): 8 mg/L (≈ 20.2 µM) | Relative Rate of Hydrolysis (benzylpenicillin = 100) [9]: < 0.5 | ED50 [10]: > 400 mg/kg | MIC [11]: 2.8 mg/L (≈ 7.06 µM) | MIC [12]: > 125 mg/L | MIC [13]: > 125 mg/L | MIC ([14]; read-out: Minimum inhibitory concentration, Alcaligenes sp., 2 strains, geometric mean when applicable): > 125 mg/L | MIC ([14]; read-out: Minimum inhibitory concentration, Alcaligenes sp., 4 strains, geometric mean when applicable): > 105 mg/L | MIC ([14]; read-out: Minimum inhibitory concentration, Alcaligenes sp., 5 strains, geometric mean when applicable): 1.3 mg/L (≈ 3.28 µM) | percent of strains inhibited [15]: negligible | percent of strains inhibited [16]: negligible | relative activity against Haemophilus influenzae [17]: more than twice as active | MIC ([18]; read-out: Minimum Inhibitory Concentration, Proteus vulgaris strain 1, A, Inoculum of 10^2 organisms): 1 mg/L (≈ 2.52 µM) | MIC ([18]; read-out: Minimum Inhibitory Concentration, Proteus vulgaris strain 1, B, Inoculum of 10^6 organisms): 4 mg/L (≈ 10.1 µM) | MIC ([18]; read-out: Minimum Inhibitory Concentration, Proteus vulgaris strain 2, A, Inoculum of 10^2 organisms): 8 mg/L (≈ 20.2 µM) | MIC ([18]; read-out: Minimum Inhibitory Concentration, Proteus vulgaris strain 2, B, Inoculum of 10^6 organisms): 125 mg/L (≈ 315 µM) | MIC ([18]; read-out: Minimum Inhibitory Concentration, Proteus vulgaris strain 4, A, Inoculum of 10^2 organisms): 16 mg/L (≈ 40.4 µM) | MIC ([18]; read-out: Minimum Inhibitory Concentration, Proteus vulgaris strain 4, B, Inoculum of 10^6 organisms): 16 mg/L (≈ 40.4 µM)
